Data taken from patent US10292992B2, “Selective high-affinity polydentate ligands and methods of making such” (LAWRENCE LIVERMORE NATIONAL SECURITY, LLC, priority 2008, dated 2019).
Entries after “also recorded” stand apart in the source; their conditions may differ.

Legend:
[1] = tested on: Raji cells expressing HLA-DR10; test: Whole cell binding assay with 111In-labeled SHAL; format: cell-based, human; conditions: for SHAL bound by Raji cells relative to parent SHAL: unwashed
Experimental: Raji human Burkitt's lymphoma B-cells (American Type Culture Collection, Manassas, Va.) were maintained in RPMI-1640 media supplemented with 10% fetal bovine serum, 2mM L-glutamine, 1 mM sodium pyruvate, 1% of a solution of nonessential amino acids (GIBCO #11140-050), and 100 units/ml of Penicillin G, 100 μg/ml Streptomycin, and 0.25 μg/ml of Amphotericin B at 37° C. in a humidified 5% CO2 atmosphere. Jurkat's cells (American Type Culture Collection, Manassas, Va.), an acute leukemia T-cell line, were maintained in the same medium with the addition of 10 mM 4-(2-hydroxyethyl)-1-piperazineethanesulfonic acid (HEPES).
A series of experiments were conducted to quantify the uptake of the ^111In-labeled parent SHAL (DvLPBaPPP)2LLDo and its hexa-arginine analog (DvLPBaPPP)2LArg6AcLLDo by Raji cells, a cell line that has been previously shown to express the HLA-DR10 variant. The assays were conducted using aliquots containing 10^6 cells suspended in 150 μl of PBS with 5% bovine serum albumin (BSA). Aliquots of cells were treated with 0.1, 1, 5, 10 or 25 ng of ^111In-labeled (DvLPBaPPP)2LLDo or (DvLPBaPPP)2LArg6AcLLDo for one hour at both 4° C. and 22° C. The tubes containing the treated cells were centrifuged to separate the cell pellet from the supernatant and the two fractions were counted in a calibrated gamma well counter to determine the amount of bound and free SHAL. Half of the cell pellets were washed twice with PBS and incubated at 22° C. for 15 min before centrifuging them again. The pooled washes and washed cell pellets were subsequently counted in the gamma well counter to assess how much of the bound SHAL could be removed by washing.
In vitro cell binding experiments were conducted using ^111In-labeled parent SHAL and the hexa-arginine SHAL analog to quantify SHAL uptake and to evaluate the effect of adding the hexa-arginine tag. Uptake was assessed using Raji cells, a lymphoma cell line expressing HLA-DR10. Aliquots containing 10^6 cells were incubated with increasing amounts of SHAL containing ^111In labeled SHAL as a tracer, and cell-associated ^111In was measured before and after washing the cell pellets.

Raji cells = test: 3-D confocal microscopy, Raji cells; format: cell-based, human; conditions: biotinylated reagent, 1 hr, 10 μM SHAL or 10 nM chLym-1
Experimental: SHAL binding and internalization by Raji and Jurkat's cells was assessed using the method described previously by O'Donnell et al. (O'Donnell et al. (1998) Prostate 37:91-97). Experiments were conducted comparing the binding of (DvLPBaPPP)2LLDo (the parent SHAL), its hexa-arginine analog (DvLPBaPPP)2LArg6AcLLDo, and chimeric Lym-1 (chLym-1) to Raji cells. All steps were performed at 20° C., unless indicated.
Four million Raji cells (>92% viability) in log phase growth were pelleted at 300×g, washed, and blocked for 30 min in 1 ml of 1% fraction V BSA in PBS, with constant rotation. Cells were then incubated 1 hr, at 1 million per 250 μl, with either 1% BSA in PBS or a biotinylated primary reagent: 10 nM chLym-1, 10 μM parent SHAL, or 10 μM hexa-arginine SHAL. After four washes (two in 1% BSA in PBS, two in PBS), 50 μl of the cell suspensions was applied to freshly poly-L-Lysine coated slides, and cells were allowed to adhere for 10 min in a humid chamber. Fixation and permeabilization were performed at −20° C. by using a 4 min exposure to methanol. Jurkat's cells were treated in the same manner as a control.
Slides were then washed twice in PBS and blocked in 10% fetaplex serum (Gemini Bioproducts, West Sacramento, Calif.) in PBS for 15 min and washed once in PBS. The detection reagent, Streptavidin AlexaFluor 610 (Invitrogen, Carlsbad, Calif.) was diluted 1/500 in diluent, 100 μl was applied; a parafilm cover slip was layered over the solution to prevent evaporation. The slides were incubated in a humid chamber for 30 min., washed 5 times for 5 min each in PBS, and rinsed briefly in double distilled H2O. After the slides dried, cover slips were mounted with ProlongGold with 4′,6-diamidino-2-phenylindole (DAPI, Invitrogen, Carlsbad, Calif.). The slides were viewed with an Olympus FV1000 laser scanning confocal microscope and data were collected as Z-scans at 160×, with focal sections being taken 1 μm apart through the cell.

Raji xenografts = test: Electron microscopy of Raji xenografts after SHAL treatment; format: in vivo, mice; conditions: after 100 ng of biotinylated SHAL
Experimental: Raji xenografts (53-132 mm^3) were harvested for EM from mice, untreated (control) and 2, 4 or 24 h after 100 ng of biotinylated SHAL.

SMILES	pmoles SHAL Bound/10^6 cells unwashed ([1]; 5.3 pmoles of 111In-labeled SHAL, unwashed cell pellets)	pmoles SHAL Bound/10^6 cells Washed ([1]; 5.3 pmoles of 111In-labeled SHAL, washed two times with BSA/buffer)	SHAL remaining associated with Raji cells after washing relative to parent SHAL ([1]; 111In-labeled, after washing, listed as hexa-arginine SHAL)	SHAL bound by Raji cells relative to parent SHAL ([1]; 111In-labeled, listed as hexa-arginine SHAL)	SHAL bound by Raji cells relative to parent SHAL ([1]; 111In-labeled, listed as hexa-arginine SHAL analog)	proportion of SHAL retained by the cells after washing ([1]; Raji cells, after washing) [%]	Percent SHAL Retained ([1]; after washing two times) [%]	amount of residualized SHAL ([1]; highest concentration tested)	SHAL binding, uptake and localization in Raji cells (Raji cells)	SHAL binding, uptake and localization in Raji cells (Raji cells; listed as hexa-arginine SHAL)	SHAL binding, uptake and localization in Raji cells (Raji cells; listed as hexa-arginine SHAL analog)	SHAL binding, uptake and localization in Raji cells (Raji cells; listed as hexa-arginine analog)	electron microscopy findings in xenograft cells (Raji xenografts)	electron microscopy findings in xenograft cells (Raji xenografts; listed as SHAL)
CC(=O)NC(CCCNC(=N)N)C(=O)NC(CCCNC(=N)N)C(=O)NC(CCCNC(=N)N)C(=O)NC(CCCNC(=N)N)C(=O)NC(CCCNC(=N)N)C(=O)NC(CCCNC(=N)N)C(=O)NCCCCC(NC(=O)C(CCCCNC(=O)COCCOCCNC(=O)COCCOCCNC(=O)COCCOCCNC(=O)C(CCCCNC(=O)COCCOCCNC(=O)c1ccc(NC(=O)C(CCCNC(=N)N)NC(=O)c2ccccc2)cc1)NC(=O)C(NS(=O)(=O)c1ccc(N=Nc2ccc(N(C)C)cc2)cc1)C(C)C)NC(=O)COCCOCCNC(=O)COCCOCCNC(=O)COCCOCCNC(=O)C(CCCCNC(=O)COCCOCCNC(=O)c1ccc(NC(=O)C(CCCNC(=N)N)NC(=O)c2ccccc2)cc1)NC(=O)C(NS(=O)(=O)c1ccc(N=Nc2ccc(N(C)C)cc2)cc1)C(C)C)C(=O)NC(CCCCNC(=O)CN1CCN(CC(=O)O)CCN(CC(=O)O)CCN(CC(=O)O)CC1)C(=O)O (centres unmarked) [(DvLPBaPPP)2LArg6AcLLDo]	1.300 ± 0.038 pmoles SHAL Bound/10^6 cells	0.876 ± 0.017 pmoles SHAL Bound/10^6 cells	Three fold more; also recorded: three times	twice as much	two fold more	67	67	~1.1×10^6 SHAL molecules per cell	internalized	localized in the nucleus; also recorded: significantly more; also recorded: associated with the nucleus	associated with the nucleus	marked cytoplasmic binding but also intranuclear targeting; also recorded: taken up and internalized	–	–
CC(C)C(NS(=O)(=O)c1ccc(N=Nc2ccc(N(C)C)cc2)cc1)C(=O)NCCOCCOCC(=O)NC(CCCCNC(=O)C(CCCCNC(=O)CC(=O)Nc1ccccc1Oc1ncc(C(F)(F)F)cc1Cl)NC(=O)COCCOCCNC(=O)c1ccc(N2CCN(Cc3ccc(Cl)cc3)CC2)c([N+](=O)[O-])c1)C(=O)NCCOCCOCC(=O)NC(CCCCNC(=O)CN1CCN(CC(=O)O)CCN(CC(=O)O)CCN(CC(=O)O)CC1)C(=O)O (centres unmarked) [tridentate SHAL]	–	–	–	–	–	–	–	–	–	–	–	–	highly condensed nuclear chromatin and fragmented organelles	condensed and fragmented chromatin and loss of cytoplasmic structures consistent with autophagic death
